These results are taken from ChEMBL document CHEMBL3046629, “Fungicidal Activities of 2-Methoxy-2-[2-(benzylideneaminooxymethyl)phenyl]-N-methylacetamide Derivatives” (2002).

Holding throughout (assay type): functional
The subject of assay [1] is Botrytis cinerea. Kind of assay: Fungicidal activity against Botryotinia fuckeliana assessed as cucumber gray mold disease control at 7.8 ppm treated on upper surface of leaf 24 hr before inoculation at 22 +/- 2 degC measured after 3 days by preventive manner.
Assay [2] has as its system Podosphaera fuliginea. Kind of assay: Fungicidal activity against Podosphaera fuliginea assessed as cucumber powdery mildew disease control at 7.8 ppm treated on upper surface of leaf 24 hr before inoculation at 23 +/- 2 degC measured after 10 days by preventive manner.
Assay [3] relates to Pseudoperonospora cubensis. Kind of assay: Fungicidal activity against Pseudoperonospora cubensis assessed as cucumber downy mildew disease control at 31.3 ppm foliar application 24 hr before inoculation onto the abaxial(treated) surface of leaf by preventive manner.
In assay [4] the test system is Pseudoperonospora cubensis. Kind of assay: Fungicidal activity against Pseudoperonospora cubensis assessed as cucumber downy mildew disease control at 7.8 ppm foliar application 24 hr before inoculation onto the adaxial(treated) surface of leaf by preventive manner.
Assay [5] has as its system Pseudoperonospora cubensis. Kind of assay: Fungicidal activity against Pseudoperonospora cubensis assessed as cucumber downy mildew disease control at 500 ppm foliar application 24 hr before inoculation onto the adaxial(treated) surface of leaf by preventive manner.
Assay [6] concerns Podosphaera fuliginea. The assay can be described thus: Fungicidal activity against Podosphaera fuliginea assessed as cucumber powdery mildew disease control at 500 ppm treated on upper surface of leaf 24 hr before inoculation at 23 +/- 2 degC measured after 10 days by preventive manner.
Assay [7] concerns Botrytis cinerea. Kind of assay: Fungicidal activity against Botryotinia fuckeliana assessed as cucumber gray mold disease control at 500 ppm treated on upper surface of leaf 24 hr before inoculation at 22 +/- 2 degC measured after 3 days by preventive manner.
The subject of assay [8] is Pseudoperonospora cubensis. Kind of assay: Fungicidal activity against Pseudoperonospora cubensis assessed as cucumber downy mildew disease control at 500 ppm foliar application 24 hr before inoculation onto the abaxial(treated) surface of leaf by preventive manner.
In assay [9] the test system is Pseudoperonospora cubensis. Kind of assay: Fungicidal activity against Pseudoperonospora cubensis assessed as cucumber downy mildew disease control at 31.3 ppm foliar application 24 hr after inoculation by curative manner.
The subject of assay [10] is Pseudoperonospora cubensis. The assay can be described thus: Fungicidal activity against Pseudoperonospora cubensis assessed as cucumber downy mildew disease control at 7.8 ppm foliar application 24 hr before inoculation onto the abaxial(treated) surface of leaf by preventive manner.
Assay [11] concerns Pseudoperonospora cubensis. Kind of assay: Fungicidal activity against Pseudoperonospora cubensis assessed as cucumber downy mildew disease control at 31.3 ppm foliar application 24 hr before inoculation onto the adaxial(treated) surface of leaf by preventive manner.
The test system of assay [12] is Pseudoperonospora cubensis. Kind of assay: Fungicidal activity against Pseudoperonospora cubensis assessed as cucumber downy mildew disease control at 2 ppm foliar application 24 hr before inoculation onto the abaxial(treated) surface of leaf by preventive manner.
Assay [13] relates to Pseudoperonospora cubensis. Kind of assay: Fungicidal activity against Pseudoperonospora cubensis assessed as cucumber downy mildew disease control at 2 ppm foliar application 24 hr before inoculation onto the adaxial(treated) surface of leaf by preventive manner.
The subject of assay [14] is Pseudoperonospora cubensis. Kind of assay: Fungicidal activity against Pseudoperonospora cubensis assessed as cucumber downy mildew disease control at 125 ppm foliar application 24 hr before inoculation onto the adaxial(treated) surface of leaf by preventive manner.
For assay [15], the system named is Pseudoperonospora cubensis. Kind of assay: Fungicidal activity against Pseudoperonospora cubensis assessed as cucumber downy mildew disease control at 2 ppm foliar application 24 hr after inoculation by curative manner.
Assay [16] deals with Pseudoperonospora cubensis. The assay can be described thus: Fungicidal activity against Pseudoperonospora cubensis assessed as cucumber downy mildew disease control at 125 ppm foliar application 24 hr before inoculation onto the abaxial(treated) surface of leaf by preventive manner.
Assay [17] relates to Pseudoperonospora cubensis. Kind of assay: Fungicidal activity against Pseudoperonospora cubensis assessed as cucumber downy mildew disease control at 125 ppm foliar application 24 hr after inoculation by curative manner.
Assay [18] deals with Pseudoperonospora cubensis. Kind of assay: Fungicidal activity against Pseudoperonospora cubensis assessed as cucumber downy mildew disease control at 7.8 ppm foliar application 24 hr after inoculation by curative manner.
Assay [19] concerns Botrytis cinerea. The assay can be described thus: Fungicidal activity against Botryotinia fuckeliana assessed as cucumber gray mold disease control at 31.3 ppm treated on upper surface of leaf 24 hr before inoculation at 22 +/- 2 degC measured after 3 days by preventive manner.
Assay [20] has as its system Podosphaera fuliginea. Kind of assay: Fungicidal activity against Podosphaera fuliginea assessed as cucumber powdery mildew disease control at 31.3 ppm treated on upper surface of leaf 24 hr before inoculation at 23 +/- 2 degC measured after 10 days by preventive manner.

For `CNC(=O)C(OC)c1ccccc1CO/N=C(\C)c1ccc(Br)cc1` (racemic), the Activity in assay [1] worked out at 50%; in assay [2], 90%; in assay [3], 90%; in assay [4] it was 90%.
`CNC(=O)C(OC)c1ccccc1COCc1ccccc1` (racemic): the Activity in assay [5] was 90%; in assay [6] it was <90%; in assay [7], <50%; in [8], <90%.
Regarding `CNC(=O)C(OC)c1ccccc1CO/N=C(\C)c1cccc(Cl)c1` (racemic), the Activity is given as 50% in assay [1], 90% in assay [2], 90% in assay [3] and 90% in assay [4].
On to `CNC(=O)C(OC)c1ccccc1CO/N=C(\C)c1ccc(-c2ccccc2)cc1` (racemic), for which the Activity in [5] is <90%; in [1] it was 50%; in [2], 90%; in assay [8], <90%.
Regarding `CNC(=O)C(OC)c1ccccc1CO/N=C(\C)c1ccc(Cl)cc1` (racemic), the Activity is listed as 50% in assay [9]; 100% in [5]; 0% in [10]; 50% in assay [1]; 100% in assay [11]; 90% in assay [2]. For the same compound, the Activity is 0% in assay [12]; 0% in assay [13]; 100% in [14]; 0% in assay [15]; 85% in assay [16]; 70% in [3]. Also, the Activity was 100% in assay [4], 70% in assay [17], 5% in [18] and 97% in assay [8].
As to `CNC(=O)C(OC)c1ccccc1CO/N=C(\C)c1ccc(C(C)(C)C)cc1` (racemic), the Activity was 90% in assay [5], 90% in assay [2], <90% in [8] and 50% in assay [19].
With `CNC(=O)C(OC)c1ccccc1CO/N=C(\C)c1ccccc1` (racemic), the Activity in [5] is <90%; in [20] it was 90%; in assay [8], <90%; in assay [19] it was 50%.
Consider `CNC(=O)C(OC)c1ccccc1CO/N=C(/C)c1ccc(Cl)cc1` (racemic), for which the Activity in assay [20] is on record as 90%; in assay [7] it was 50%; in [14], 90%; in assay [8], <90%.
`CNC(=O)C(OC)c1ccccc1Oc1ccccc1` (racemic): the Activity is listed as <90% in assay [5], <90% in assay [6], <50% in assay [7] and <90% in [8].
Take `CNC(=O)C(OC)c1ccccc1CO/N=C(/C)c1ccc(C(F)(F)F)cc1` (racemic): the Activity in [2] is 90%; in assay [7], 50%; in assay [14], 90%; in [8], <90%.
As for `CNC(=O)C(OC)c1ccccc1CO/N=C(\C)c1ccc(C)c(C)c1` (racemic), the Activity in assay [2] is 90%; in assay [16] it was 90%; in assay [4] it was 90%; in [19], 50%.
In the case of `CNC(=O)C(OC)c1ccccc1CO/N=C(\C)c1cc(C)ccc1C` (racemic), the Activity in assay [5] is reported as 90%; in [6] it was 90%; in [7], <50%; in assay [8] it was <90%.
For the compound `CNC(=O)C(OC)c1ccccc1CO/N=C(\C)c1cc(C)cc(C)c1C` (racemic), the Activity in assay [5] is given as 90%; in assay [2], 90%; in [7], 50%; in [8], <90%.
Turning to `CNC(=O)C(OC)c1ccccc1CO/N=C(/C)c1ccc(OC)cc1` (racemic), the Activity in assay [5] is listed as 90%; in [6] it was 90%; in assay [7], 50%; in assay [8], <90%.
Take `CNC(=O)C(OC)c1ccccc1CO/N=C/c1ccccc1` (racemic): the Activity in assay [5] is <90%; in assay [6] it was <90%; in assay [7], 50%; in assay [8] it was <90%.
On to `CC/C(=N\OCc1ccccc1C(OC)C(=O)NC)c1ccc(Cl)cc1` (racemic), for which the Activity in [10] was found to be 90%; in assay [1] it was 50%; in assay [2] it was 90%; in [4], 90%.
`CNC(=O)C(OC)c1ccccc1CO/N=C(\C)c1ccc(C(F)(F)F)cc1` (racemic): the Activity was found to be 70% in assay [9]; 100% in assay [5]; 40% in assay [10]; 50% in [1]; 100% in assay [11]; 90% in assay [2]. The Activity in assay [12] is given as 15%; in assay [13], 100%; in [14], 100%; in assay [15] it was 25%; in assay [16], 96%; in assay [3] it was 91%. Further, the Activity in [4] came out at 100%; in assay [17], 75%; in assay [18], 40%; in assay [8] it was 100%.
Take `CNC(=O)C(OC)c1ccccc1CO/N=C(\C)c1ccc(O)cc1` (racemic): the Activity in assay [5] is listed as 90%; in assay [6] it was <90%; in assay [7], <50%; in assay [8], <90%.
For `CNC(=O)C(OC)c1ccccc1CO/N=C(\C)c1ccccc1Cl` (racemic), the Activity is 90% in [5], 90% in assay [6], 50% in assay [7] and <90% in assay [8].
As to `CCc1ccc(/C(C)=N/OCc2ccccc2C(OC)C(=O)NC)cc1` (racemic), the Activity in assay [1] is recorded as 50%; in assay [2], 90%; in [4], 90%; in assay [8] it was 90%.
With `CNC(=O)C(OC)c1ccccc1CO/N=C(\C)c1ccc(F)cc1` (racemic), the Activity in assay [11] was 90%; in assay [2] it was 90%; in assay [3] it was 90%; in assay [19], 50%.
On to `CCOc1ccc(/C(C)=N/OCc2ccccc2C(OC)C(=O)NC)cc1` (racemic), for which the Activity is reported as 90% in assay [5], 90% in [2], <90% in [8] and 50% in assay [19].
On to `CNC(=O)C(OC)c1ccccc1CO/N=C(\C)c1ccc(Cl)c(Cl)c1` (racemic), for which the Activity in assay [1] was determined as 50%; in [2] it was 90%; in assay [3], 90%; in assay [4], 90%.
On to `CNC(=O)C(OC)c1ccccc1CO/N=C(\C)c1ccccc1C(F)(F)F` (racemic), for which the Activity is <90% in assay [5], 90% in [6], <50% in assay [7] and <90% in assay [8].
Turning to `CNC(=O)C(OC)c1ccccc1CO/N=C(\C)c1cccc(C(F)(F)F)c1` (racemic), the Activity came out at 50% in [1], 90% in [2], 90% in assay [4] and 90% in assay [8].
With `CNC(=O)C(OC)c1ccccc1CO/N=C(\C)c1ccc(Cl)cc1Cl` (racemic), the Activity in [20] is on record as 90%; in assay [8], <90%; in assay [19], 50%.
With `CNC(=O)C(OC)c1ccccc1CO/N=C(\C)c1ccc(C)cc1` (racemic), the Activity in assay [1] was 50%; in [2], 90%; in [4] it was 90%; in assay [8] it was 90%.
For the compound `CNC(=O)C(OC)c1ccccc1COC(=O)c1ccccc1` (racemic), the Activity is reported as 90% in [5], <90% in assay [6], <50% in assay [7] and <90% in [8].
